These are literature values, as cited in patent publication US6544961B1, “Combinations comprising VX478, zidovudine, FTC and/or 3TC for use in the treatments of HIV” (SmithKline Beecham Corporation, priority 1996, dated 2003).

This data set concerns HIV. The conditions noted are these: European Patent Specification No. 384536.

With `Nc1ccn(C2CSC(CO)O2)c(=O)n1` (racemic) [BCH-189, 4-amino-1-(2-hydroxymethyl-1,3-oxathiolan-5-yl)-(1H)-pyrimidin-2-one], the anti-HIV activity entry was “have been found to have anti-HIV activity”.
